Results reported in paper PMC3676669 (Journal of inorganic biochemistry, 2012).

Target: T1, 20S proteasome, chymotrypsin-like activity (β5 subunit) (Oryctolagus cuniculus, UniProt G1T4Q9)
T1 sequence (G1T4Q9 1-263): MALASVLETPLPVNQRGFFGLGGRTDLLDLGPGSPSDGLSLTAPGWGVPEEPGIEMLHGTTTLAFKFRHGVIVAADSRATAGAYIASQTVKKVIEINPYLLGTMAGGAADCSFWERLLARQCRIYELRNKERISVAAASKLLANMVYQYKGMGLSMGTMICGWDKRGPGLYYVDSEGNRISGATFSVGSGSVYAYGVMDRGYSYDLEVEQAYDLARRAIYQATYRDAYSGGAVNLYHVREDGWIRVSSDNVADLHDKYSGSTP
Experiment: fluorogenic Suc-LLVY-AMC hydrolysis by purified […] proteasome, […] h
Assay type: biochemical

Row | SMILES | IC50 [µM]
1 | COc1cccc2c1[O][Cu-3]13([O]C(=O)C(CCSC)[N+]1=C2)[n+]1cccc2ccc4ccc[n+]3c4c21 (stereo not shown) [C1, [Cu(L1)(Phen)]·9H2O] | 13.3
2 | COc1cccc2c1[O][Cu-3]13([O]C(=O)[C@H](CCSC)[N+]1=C2)[n+]1ccccc1-c1cccc[n+]13 [C2, [Cu(L1)(Bpy)]·3H2O] | 46.5
3 | CC(C)[C@H]1C(=O)[O][Cu-3]23([O]c4ccc5ccccc5c4C=[N+]12)[n+]1cccc2ccc4ccc[n+]3c4c21 [C3, [Cu(L2)(Phen)]·3H2O] | 11.3
4 | CC(C)[C@H]1C(=O)[O][Cu-3]23([O]c4ccc5ccccc5c4C=[N+]12)[n+]1ccccc1-c1cccc[n+]13 [C4, [Cu(L2)(Bpy)]·3H2O] | 42.5
